According to article PMC6273592, “Catalytic Synthesis of a New Series of Alkyl Uronates and Evaluation of Their Physicochemical Properties” (Molecules, 2016):
≈ marks a conversion by molar mass, not a printed value. Where “and” joins values, the source holds several entries; their conditions need not be identical. Identical values can stand only once. Entries after “also recorded” stand apart in the source; their conditions may differ. Like-named read-outs stand apart in the source and are kept apart here.

Tests used:
[1] = Krafft temperature (Tk) by differential scanning calorimetry; assay type: physicochemical; conditions: DSC, aqueous mixture 10% (w/w), heating scan 4 °C to 65 °C, onset of endothermic signal
Method: (§1) For each molecule, several samples in 1–2 mL deionized water with various concentrations (between 0.01 mM and 100 mM) were prepared by homogenizing at 500 rpm with a standard magnetic hotplate stirrer MR 3001K (Heidolph Instruments, Schwabach, Germany) for 30 min. The soluble or insoluble character was estimated on the aspect change of corresponding dispersion systems. The concentration limit to obtain an apparently clear solution was noted [C]max. […] This allows the examination of the temperature-driven solubilization behavior and verifies the presence of the Krafft point (Tk), above which the surfactant solubility in water increases abruptly. At Tk, solubility of the surfactant reaches its critical micelle concentration (CMC). In other words, Tk represents the critical temperature at which the micellization process occurs with the dissolution of hydrated surfactant crystals. Thus, Tk can be precisely determined by differential scanning calorimetry (DSC), which has already been proposed by some authors. All of the measurements were performed with a commercial µDSC7 evo calorimeter (SETARAM Instrumentation, Caluire, France). For each molecule, a sample with a concentrated aqueous mixture of 10% (w/w) molecule (C >> CMC) was prepared at 50 °C under magnetic agitation for 30 min to obtain a homogeneous and clear dispersion. These dispersions were then put into a refrigerator at 4 °C for a period over a week, permitting potential phase transitions, including the formation of equilibrated hydrated crystals. Samples of about 300 mg were introduced in the calorimeter cell and equilibrated at 4 °C for 1 h. A heating scan from 4 °C to 65 °C at a rate of 0.5 °C/min was then performed. Tk were identified as the onset of the endothermic signal detected by DSC during the dissolution of hydrated crystals. Tk were calculated as an average of at least two measurements.

[2] = Aqueous solubility: concentration limit of apparently clear solution ([C]max) by visual observation; assay type: physicochemical; conditions: for solubility at 30 min: deionized water
Method: as §1

[3] = Equilibrium surface tension at the air-aqueous solution interface (Wilhelmy plate); assay type: physicochemical; conditions: water; for Amin (minimal area per molecule at air-aqueous solution interface): calculated from Gibbs equation
Method: The surface activity of the synthesized molecules was studied mainly in terms of their adsorption behavior on the air-aqueous solution interface. The equilibrium surface tensions γ were measured by means of a Wilhelmy plate using a K100 Processor Tensiometer (KRUSS, Hamburg, Germany). The equilibrium surface tension γ was plotted as a function of the log concentration for all molecules, from which we can derive various parameters, like critical micellar concentration (CMC) extrapolated from the break in the surface tension curve and surface tension at the CMC (γcmc). The surface excess (Γmax) and minimal area per molecule at air-aqueous solution interface (Amin) can be calculated from Gibbs equation for non-ionic surfactants: (2) Гmax=−1/2.303RT(dγ/dlogc) and (3) Amin=10^20/NAГmax where R is the ideal gas constant (8.31 J·mol^−1K^−1)’ T is the measuring temperature (K); γ is the surface tension (N·m^−1), c is the concentration (mol·L^−1); Amin is the minimal area per molecule (Å^2); and NA is Avogadro′s number (6.02 × 10^23 mol^−1).
For each molecule, a series of solutions of different concentrations were prepared well above its Krafft Point, either at room temperature of about 25 °C or at 50 °C, under agitation in a water bath for 30 min. Measurements were carried out for each concentration, either at 25 °C for molecules with a Tk below room temperature, or at T > Tk for those with higher Tk values than 25 °C. The standard deviation for temperature is 1 °C.

[4] = cited from earlier work
[5] = room temperature of about 25 °C, visual observation

| Tk (Krafft Temperature) [1] | solubility at 30 min [2, 5] [µM] | [C]max ([2]; water, 25 °C (Table 2)) [mM] | CMC ([3]; 25 °C) [mM] | γcmc (surface tension at the CMC) ([3]; 25 °C) [mN·m^−1] | Amin (minimal area per molecule at air-aqueous solution interface) ([3]; 25 °C) [Å^2/molecule] | Molecule | CMC [4] [mM] | also measured |
| --- | --- | --- | --- | --- | --- | --- | --- | --- |
| undetected | ≥ 50000 | 50 to 60 | 55 ± 5 | 30.8 ± 0.8 | 39.2 ± 2.9 | CCCCCCOC(=O)[C@H]1O[C@H](OC)[C@H](O)[C@@H](O)[C@@H]1O [3c, Hexyl (methyl α-D-glucopyranosid)uronate] |  |  |
| 22 ± 0.2 °C | ≥ 30 | 0.03 to 0.05 | 0.056 ± 0.004 | 28.3 ± 0.3 | 45.6 ± 5 | CCCCCCCCCCCCOC(=O)[C@H]1O[C@H](OC)[C@H](O)[C@@H](O)[C@@H]1O [3f, Dodecyl (methyl α-D-glucopyranosid)uronate] |  |  |
| undetected | 500 to 750 (≈ 174 to 261 µg/mL) | 0.5 to 0.75 | 0.65 ± 0.05 | 28.1 ± 0.1 | 42.4 ± 2 | CCCCCCCCCCOC(=O)[C@H]1O[C@H](OC)[C@H](O)[C@@H](O)[C@@H]1O [3e, Decyl (methyl α-D-glucopyranosid)uronate] |  |  |
|  |  |  |  |  |  | polyoxyethylene sorbitan monolaurate [Tween 20] | 0.050 to 0.059 |  |
| 31 ± 0.9 °C |  |  |  |  |  | CCCCCCCCOC(=O)[C@H]1O[C@@H](OC)[C@H](O)[C@@H](O)[C@H]1O [compound 5, Octyl (methyl β-D-galactopyranosid)uronate] |  | [C]max ([2]; water, 40 °C (Table 2)): >100 mM; [C]max at T > Tk ([2]; water, above Krafft temperature (31 °C)): > 100 mM; [C]max at ≈25 °C (concentration limit of apparently clear solution) ([2]; water, room temperature of about 25 °C, visual observation): insoluble; CMC ([3]; 40 °C): 6.9 ± 0.4 mM; γcmc (surface tension at the CMC) ([3]; 40 °C): 29.4 ± 0.36 mN·m^−1 and 29.4 ± 0.4 mN·m^−1; Amin (minimal area per molecule at air-aqueous solution interface) ([3]; 40 °C): 42.9 ± 3.9 Å^2/molecule |
| no signal; also recorded: undetected | ≥ 5000 | 5.0 to 6.2 | 5.5 ± 0.5 | 28.3 ± 0.3 | 42.8 ± 2 | CCCCCCCCOC(=O)C1OC(OC)C(O)C(O)C1O [compound 7, Octyl (methyl α-D-mannopyranosid)uronate] |  |  |
|  |  |  |  |  |  | polyethylene glycol tert-octylphenyl ether [Triton X-100] | 0.23 to 0.24 |  |
| no signal; also recorded: undetected | ≥ 20000 | 15 to 20 | 6.0 ± 0.5 | 29.2 ± 0.4 | 41.0 ± 1 | CCCCCCCCOC(=O)[C@H]1O[C@H](OC)[C@H](O)[C@@H](O)[C@@H]1O [3d, Octyl (methyl α-D-glucopyranosid)uronate] |  |  |
|  |  |  |  |  |  | polyoxyethylene (23) lauryl ether [Brij 35] | 0.03 to 0.09 |  |
